Patent publication US3989730A, “Bone-seeking technetium-99m complex” (priority 1973, dated 1976)
Read-outs that look alike come from different tables or passages of the source.

Columns and labels:
[1] = Simultaneous distribution of 99mTc-EHDP and 85Sr in rabbits at 1-24 hours after intravenous injection; assay type: in vivo, adult New Zealand albino rabbits; settings: for Blood, % Dose in Whole Organ: blood as 7 % of body weight; for Bone(Avg), % dose in whole organ: bone as 10 % of body weight; for Marrow, % Dose in Whole Organ: marrow as 2.2 % of body weight; for Muscle, % Dose in Whole Organ: muscle as 43 % of body weight
Experimental: Adult New Zealand albino rabbits having an average weight of 3.8 kg were utilized. Strontium-85 was employed as a standard for comparison. […] Each dosage is contained in a volume of 1 ml.
Multiple samples were counted from the tibia, femur, spine and pelvic bones; the total activity in the skeleton was estimated by assuming the whole skeleton consisted of equal proportions by weight of tibia, spine, femur and pelvis and that the skeletal mass was 10% of the body weight. […] The whole liver and both kidneys were weighed and multiple samples from each were counted to measure the total activity in each organ.

[2] = test system: callous of three week-old fractures of tibia; experiment: Localization in callous of three week-old tibial fractures (rabbits), compared with strontium-85; assay type: in vivo, albino rabbits
Experimental: Adult New Zealand albino rabbits having an average weight of 3.8 kg were utilized. Strontium-85 was employed as a standard for comparison. In a typical experiment 20-250 μCi (i.e., containing approximately 1 mg/kg as the free acid of body weight) of 99mTc EHDP were injected intravenously into the rabbits through the marginal ear vein and compared with 10-20 μ Ci 85 Sr chloride administered simutaneously. Each dosage is contained in a volume of 1 ml.
The animals were sacrificed serially from 1 to 24 hours after injection and the activities in major organs were determined by counting multiple samples from each organ in a scintillation well counter (the technetium-99m counts were corrected for the Compton contributions from the strontium-85 activity in the technetium-99m energy window). Multiple samples were counted from the tibia, femur, spine and pelvic bones; the total activity in the skeleton was estimated by assuming the whole skeleton consisted of equal proportions by weight of tibia, spine, femur and pelvis and that the skeletal mass was 10% of the body weight. The red marrow was sampled from the femur and the total marrow was assumed to be 2.2% of the total body weight. Similarly, blood volume was assumed to be 7% and the skeletal muscle 43% of the body weight. The whole liver and both kidneys were weighed and multiple samples from each were counted to measure the total activity in each organ.
In another series of experiments carried out as described above, localization of technetium from its tin-phosphonate complex was determined in the callous of three week-old fractures of tibia in albino rabbits, again in comparison with strontium-85. Comparative radioassay of technetium-99m administered as the pertechnetate was measured in the callous of tibial fractures in rabbits at one and four hours after administration.

[3] = 2 Hrs
[4] = radioactive decay; cited from earlier work

[85Sr+2].[Cl-].[Cl-] [85Sr, reference compound]
Bone(Avg), % dose / 1 % body weight ([1]; 1 Hr): 5.60 % dose / 1 % body weight | Femur, % dose / 1 % body weight ([1]; 1 Hr): 4.90 % dose / 1 % body weight | Kidneys, % Dose in Whole Organ ([1]; 1 Hr): 0.80 % dose | Pelvis, % dose / 1 % body weight ([1]; 1 Hr): 7.07 % dose / 1 % body weight | Spine, % dose / 1 % body weight ([1]; 1 Hr): 7.03 % dose / 1 % body weight | Tibia, % dose / 1 % body weight ([1]; 1 Hr): 3.62 % dose / 1 % body weight | Urine, % Dose ([1]; 1 Hr): 6.96 % dose | Blood, % Dose in Whole Organ ([1]; 1 Hr): 11.9 % dose | Bone(Avg), % dose in whole organ ([1]; 1 Hr): 56.0 % dose | Marrow, % Dose in Whole Organ ([1]; 1 Hr): 0.91 % dose | Muscle, % Dose in Whole Organ ([1]; 1 Hr): 13.4 % dose | Bone(Avg), % dose / 1 % body weight ([1]; 2 Hrs): 6.44 % dose / 1 % body weight | Femur, % dose / 1 % body weight ([1]; 2 Hrs): 5.74 % dose / 1 % body weight | Kidneys, % Dose in Whole Organ ([1]; 2 Hrs): 0.64 % dose | Pelvis, % dose / 1 % body weight ([1]; 2 Hrs): 7.70 % dose / 1 % body weight | Spine, % dose / 1 % body weight ([1]; 2 Hrs): 7.59 % dose / 1 % body weight | Tibia, % dose / 1 % body weight ([1]; 2 Hrs): 4.73 % dose / 1 % body weight | Urine, % Dose ([1]; 2 Hrs): 18.0 % dose | Blood, % Dose in Whole Organ ([1]; 2 Hrs): 7.08 % dose | Bone(Avg), % dose in whole organ ([1]; 2 Hrs): 49.4 % dose | Marrow, % Dose in Whole Organ ([1]; 2 Hrs): 0.76 % dose | Muscle, % Dose in Whole Organ ([1]; 2 Hrs): 8.8 % dose | Bone(Avg), % dose / 1 % body weight ([1]; 4 Hrs): 6.81 % dose / 1 % body weight | Femur, % dose / 1 % body weight ([1]; 4 Hrs): 6.17 % dose / 1 % body weight | Kidneys, % Dose in Whole Organ ([1]; 4 Hrs): 0.34 % dose | Pelvis, % dose / 1 % body weight ([1]; 4 Hrs): 8.02 % dose / 1 % body weight | Spine, % dose / 1 % body weight ([1]; 4 Hrs): 7.82 % dose / 1 % body weight | Tibia, % dose / 1 % body weight ([1]; 4 Hrs): 5.13 % dose / 1 % body weight | Urine, % Dose ([1]; 4 Hrs): 22.7 % dose | Blood, % Dose in Whole Organ ([1]; 4 Hrs): 3.85 % dose | Bone(Avg), % dose in whole organ ([1]; 4 Hrs): 68.1 % dose | Marrow, % Dose in Whole Organ ([1]; 4 Hrs): 0.50 % dose | Muscle, % Dose in Whole Organ ([1]; 4 Hrs): 6.46 % dose | Bone(Avg), % dose / 1 % body weight ([1]; 24 Hrs): 5.21 % dose / 1 % body weight | Femur, % dose / 1 % body weight ([1]; 24 Hrs): 4.83 % dose / 1 % body weight | Kidneys, % Dose in Whole Organ ([1]; 24 Hrs): 0.03 % dose | Marrow, % dose / 1 % body weight ([1]; 24 Hrs): 0.05 % dose / 1 % body weight | Pelvis, % dose / 1 % body weight ([1]; 24 Hrs): 5.26 % dose / 1 % body weight | Spine, % dose / 1 % body weight ([1]; 24 Hrs): 6.47 % dose / 1 % body weight | Tibia, % dose / 1 % body weight ([1]; 24 Hrs): 4.27 % dose / 1 % body weight | Blood, % Dose in Whole Organ ([1]; 24 Hrs): 0.29 % dose | Bone(Avg), % dose in whole organ ([1]; 24 Hrs): 51.9 % dose | Marrow, % Dose in Whole Organ ([1]; 24 Hrs): 0.10 % dose | Muscle, % Dose in Whole Organ ([1]; 24 Hrs): 1.00 % dose | Callus, % dose / 1 % body weight ([2]; 1 Hr): 31.2 % dose / 1 % body weight | Callus, % dose / 1 % body weight ([2]; 4 Hrs): 37.7 % dose / 1 % body weight | Blood, % Dose in Whole Organ ([3]; AEDP 0.01 mg/kg): 2.99 % Dose | Kidneys, % Dose in Whole Organ ([3]; AEDP 0.01 mg/kg): 0.329 % Dose | Liver, % Dose in Whole Organ ([3]; AEDP 0.01 mg/kg): 0.568 % Dose | Marrow, % Dose in Whole Organ ([3]; AEDP 0.01 mg/kg): 0.465 % Dose | Urine, % Dose ([3]; AEDP 0.01 mg/kg): 20.97 % Dose | Blood, % Dose in Whole Organ ([3]; AEDP 0.05 mg/kg): 2.50 % Dose | Kidneys, % Dose in Whole Organ ([3]; AEDP 0.05 mg/kg): 0.353 % Dose | Liver, % Dose in Whole Organ ([3]; AEDP 0.05 mg/kg): 0.613 % Dose | Marrow, % Dose in Whole Organ ([3]; AEDP 0.05 mg/kg): 0.486 % Dose | Urine, % Dose ([3]; AEDP 0.05 mg/kg): 11.95 % Dose | Blood, % Dose in Whole Organ ([3]; AEDP 0.1 mg/kg): 2.48 % Dose | Kidneys, % Dose in Whole Organ ([3]; AEDP 0.1 mg/kg): 0.324 % Dose | Liver, % Dose in Whole Organ ([3]; AEDP 0.1 mg/kg): 0.654 % Dose | Marrow, % Dose in Whole Organ ([3]; AEDP 0.1 mg/kg): 0.244 % Dose | Urine, % Dose ([3]; AEDP 0.1 mg/kg): 12.1 % Dose | Blood, % Dose in Whole Organ ([3]; AEDP 0.5 mg/kg): 4.36 % Dose | Kidneys, % Dose in Whole Organ ([3]; AEDP 0.5 mg/kg): 0.384 % Dose | Liver, % Dose in Whole Organ ([3]; AEDP 0.5 mg/kg): 0.720 % Dose | Urine, % Dose ([3]; AEDP 0.5 mg/kg): 10.47 % Dose | Urine, % Dose ([3]; EHDP 0.01 mg/kg): 23.66 % Dose | Urine, % Dose ([3]; EHDP 0.05 mg/kg): 13.4 % Dose | Urine, % Dose ([3]; EHDP 0.1 mg/kg): 11.31 % Dose | Urine, % Dose ([3]; EHDP 0.5 mg/kg): 19.6 % Dose | Blood, % Dose in Whole Organ ([3]; MDP 0.01 mg/kg): 3.27 % Dose | Kidneys, % Dose in Whole Organ ([3]; MDP 0.01 mg/kg): 0.34 % Dose | Liver, % Dose in Whole Organ ([3]; MDP 0.01 mg/kg): 0.65 % Dose | Marrow, % Dose in Whole Organ ([3]; MDP 0.01 mg/kg): 0.53 % Dose | Muscle, % Dose in Whole Organ ([3]; MDP 0.01 mg/kg): 5.69 % Dose | One Femur, % Dose in Whole Organ ([3]; MDP 0.01 mg/kg): 3.46 % Dose | Urine, % Dose ([3]; MDP 0.01 mg/kg): 10.3 % Dose | Blood, % Dose in Whole Organ ([3]; MDP 0.05 mg/kg): 3.66 % Dose | Kidneys, % Dose in Whole Organ ([3]; MDP 0.05 mg/kg): 0.46 % Dose | Liver, % Dose in Whole Organ ([3]; MDP 0.05 mg/kg): 0.71 % Dose | Marrow, % Dose in Whole Organ ([3]; MDP 0.05 mg/kg): 0.53 % Dose | Muscle, % Dose in Whole Organ ([3]; MDP 0.05 mg/kg): 5.89 % Dose | One Femur, % Dose in Whole Organ ([3]; MDP 0.05 mg/kg): 2.53 % Dose | Urine, % Dose ([3]; MDP 0.05 mg/kg): 23.16 % Dose | Blood, % Dose in Whole Organ ([3]; MDP 0.1 mg/kg): 3.95 % Dose | Kidneys, % Dose in Whole Organ ([3]; MDP 0.1 mg/kg): 0.66 % Dose | Liver, % Dose in Whole Organ ([3]; MDP 0.1 mg/kg): 1.05 % Dose | Marrow, % Dose in Whole Organ ([3]; MDP 0.1 mg/kg): 0.57 % Dose | Muscle, % Dose in Whole Organ ([3]; MDP 0.1 mg/kg): 9.32 % Dose | One Femur, % Dose in Whole Organ ([3]; MDP 0.1 mg/kg): 2.80 % Dose | Urine, % Dose ([3]; MDP 0.1 mg/kg): 15.4 % Dose | Blood, % Dose in Whole Organ ([3]; MDP 0.5 mg/kg): 3.11 % Dose | Kidneys, % Dose in Whole Organ ([3]; MDP 0.5 mg/kg): 0.45 % Dose | Liver, % Dose in Whole Organ ([3]; MDP 0.5 mg/kg): 0.69 % Dose | Marrow, % Dose in Whole Organ ([3]; MDP 0.5 mg/kg): 0.67 % Dose | Muscle, % Dose in Whole Organ ([3]; MDP 0.5 mg/kg): 5.65 % Dose | One Femur, % Dose in Whole Organ ([3]; MDP 0.5 mg/kg): 2.96 % Dose | Urine, % Dose ([3]; MDP 0.5 mg/kg): 15.16 % Dose | half-life of radionuclide [4]: 65 days
